These results are taken from US8119624B2, “Fused phenyl amido heterocyclic compounds” (Pfizer Inc., priority 2006, dated 2012).

What is called EC50 is the concentration at which the effect is half-maximal.

This assay addresses T1, Full-length glucokinase (beta cell isoform) (Homo sapiens, UniProt P35557).
T1 construct: Full-length glucokinase (beta cell isoform) was His-tagged at N-terminus; His tag (N); made in house
T1 sequence (P35557 1-465): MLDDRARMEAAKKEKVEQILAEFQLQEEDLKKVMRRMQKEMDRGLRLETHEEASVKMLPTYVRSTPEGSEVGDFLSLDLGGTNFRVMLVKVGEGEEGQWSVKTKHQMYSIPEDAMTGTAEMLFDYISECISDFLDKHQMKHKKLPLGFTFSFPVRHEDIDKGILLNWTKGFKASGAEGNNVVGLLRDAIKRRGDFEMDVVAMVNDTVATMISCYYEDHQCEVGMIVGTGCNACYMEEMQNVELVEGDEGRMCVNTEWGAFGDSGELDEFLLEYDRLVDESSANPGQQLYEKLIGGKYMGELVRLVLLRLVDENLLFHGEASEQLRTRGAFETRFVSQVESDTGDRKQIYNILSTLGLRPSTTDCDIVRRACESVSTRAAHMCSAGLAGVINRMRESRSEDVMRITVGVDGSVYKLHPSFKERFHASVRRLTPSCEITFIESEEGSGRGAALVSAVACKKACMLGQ
The assay is described as follows: Glucokinase biochemical assay (PK/LDH-coupled, NADH depletion at 340 nm): % activation, EC50, % max activation. The conditions noted are these: 5 mM glucose; for activation at 10 µM: 10 uM compound, % Activation=(Va/Vo−1)×100, read-out: % Activation at 10 uM; for EC50: GK activation, read-out: EC50; for Emax: fitted maximum activation, read-out: % Max Activation. In a few lines:
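N-terminally His-tagged full-length human beta-cell glucokinase, room temperature, 5 mM glucose, 1 mM ATP, PK/LDH-coupled with 0.7 mM NADH, 1% DMSO final. Initial velocity from the 200–900 s slope of A340 decline. % activation = (Va/Vo−1)×100, measured across compound concentrations.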

Each structure is given as a SMILES string.

For `Cc1ccc(NC(=O)c2cc(OC(C)C)cc3oc(Br)cc23)nc1` [Example 345, 2-Bromo-6-isopropoxy-N-(5-methylpyridin-2-yl)benzofuran-4-carboxamide], the activation at 10 µM came out at 75.6%, the EC50 amounted to 4 µM and the Emax turned out to be 116%.

In the case of `C=C(C)c1cc2c(C(=O)Nc3ccc(C)cn3)cc(OC(C)C)cc2o1` [Example 346, 6-Isopropoxy-N-(5-methylpyridin-2-yl)-2-(prop-1-en-2-yl)benzofuran-4-carboxamide], the activation at 10 µM was 69.2%, the EC50 came to 1.5 µM and the Emax was 89%.

As to `Cc1ccc(NC(=O)c2cc(OC(C)C)cc3oc(-c4ccccc4)cc23)nc1` [Example 347, 6-Isopropoxy-N-(5-methylpyridin-2-yl)-2-phenylbenzofuran-4-carboxamide], the activation at 10 µM is 113%, the EC50 is 0.16 µM and the Emax is 158%.

For `Cc1ccc(NC(=O)c2cc(OC(C)C)cc3oc(C(C)C)cc23)nc1` [Example 348, 6-Isopropoxy-2-isopropyl-N-(5-methylpyridin-2-yl)benzofuran-4-carboxamide], the activation at 10 µM stood at 16.6%.

Regarding `Cc1ccc(NC(=O)c2cc(OC(C)C)cc3oc(C(=O)N4CCC4)cc23)nc1` [Example 349, 2-(Azetidine-1-carbonyl)-6-isopropoxy-N-(5-methylpyridin-2-yl)benzofuran-4-carboxamide], the activation at 10 µM is -32.1%.

Take `Cc1ccc(NC(=O)c2cc(Oc3ccc(S(C)(=O)=O)cc3)c3c(C)csc3c2)nc1` [Example 350, 3-Methyl-N-(5-methylpyridin-2-yl)-4-[4-(methylsulfonyl)-phenoxy]-1-benzothiophene-6-carboxamide]: the activation at 10 µM worked out at 11.2%.

For `Cc1csc2cc(C(=O)Nc3ccn(C)n3)cc(Oc3ccc(S(C)(=O)=O)cc3)c12` [Example 351, 3-Methyl-N-(1-methyl-1H-pyrazol-3-yl)-4-[4-(methylsulfonyl)-phenoxy]-1-benzothiophene-6-carboxamide], the activation at 10 µM was found to be 0.9%.

As to `Cc1csc2cc(C(=O)Nc3ccn(C)n3)cc(Oc3ccc(C(=O)N(C)C)cc3)c12` [Example 352, 4-{4-[(Dimethylamino)carbonyl]phenoxy}-3-methyl-N-(1-methyl-1H-pyrazol-3-yl)-1-benzothiophene-6-carboxamide], the activation at 10 µM was found to be 12.3%.

With `Cc1ccc(NC(=O)c2cc(Oc3ccc(C(=O)N(C)C)cc3)c3c(C)csc3c2)nc1` [Example 353, 4-{4-[(Dimethylamino)carbonyl]phenoxy}-3-methyl-N-(5-methylpyridin-2-yl)-1-benzothiophene-6-carboxamide], the activation at 10 µM was found to be 3.4%.

Take `Cc1csc2cc(C(=O)Nc3ccn(C)n3)cc(O[C@@H](C)Cc3ccccc3)c12` [Example 354, 3-Methyl-4-[(1S)-1-methyl-2-phenylethoxy]-N-(1-methyl-1H-pyrazol-3-yl)-1-benzothiophene-6-carboxamide]: the activation at 10 µM was determined as 3.5%.

Turning to `Cc1ccc(NC(=O)c2cc(Oc3ccc(S(C)(=O)=O)cc3)c3ccsc3c2)nc1` [Example 355, 4-(4-Methanesulfonyl-phenoxy)-benzo[b]thiophene-6-carboxylic acid(5-methyl-pyridin-2-yl)-amide], the activation at 10 µM stood at 114%, the EC50 came out at 0.52 µM and the Emax came out at 110%.

Turning to `Cn1ccc(NC(=O)c2cc(Oc3ccc(S(C)(=O)=O)cc3)c3ccsc3c2)n1` [Example 356, 4-(4-(Methylsulfonyl)phenoxy)-N-(1-methyl-1H-pyrazol-3-yl)benzo-[b]-thiophene-6-carboxamide], the activation at 10 µM amounted to 77.4% and the EC50 is > 10 µM.

Turning to `CN(C)C(=O)c1ccc(Oc2cc(C(=O)Nc3ccn(C)n3)cc3sccc23)cc1F` [Example 357, 4-(4-(Dimethylcarbamoyl)-3-fluorophenoxy)-N-(1-methyl-1H-pyrazol-3-yl)benzo[b]thiophene-6-carboxamide], the activation at 10 µM worked out at 32.7%.

Take `Cc1ccc(NC(=O)c2cc(Oc3ccc(C(=O)N(C)C)c(F)c3)c3ccsc3c2)nc1` [Example 358, 4-(4-(Dimethylcarbamoyl)-3-fluorophenoxy)-N-(5-methylpyridin-2-yl)benzo[b]thiophene-6-carboxamide]: the activation at 10 µM is 50.4%, the EC50 amounted to 0.33 µM and the Emax came out at 56%.

Consider `Cc1ccc(NC(=O)c2cc(Oc3ccc(S(C)(=O)=O)cc3)c3cc(C)sc3c2)nc1` [Example 359, 4-(4-Methanesulfonyl-phenoxy)-2-methyl-benzo[b]thiophene-6-carboxylic acid (5-methyl-pyridin-2-yl)-amide], for which the activation at 10 µM amounted to 69.9%, the EC50 came out at 0.19 µM and the Emax was found to be 70%.

On to `Cc1cc2c(Oc3ccc(S(C)(=O)=O)cc3)cc(C(=O)Nc3ccn(C)n3)cc2s1` [Example 360, 4-(4-(Methylsulfonyl)phenoxy)-2-methyl-N-(1-methyl-1H-pyrazol-3-yl)benzo[b]thiophene-6-carboxamide], for which the activation at 10 µM amounted to 129%, the EC50 worked out at 0.62 µM and the Emax was determined as 142%.

As to `Cc1ccc(NC(=O)c2cc(Oc3ccc(C(=O)N(C)C)c(F)c3)c3cc(C)sc3c2)nc1` [Example 361, 4-(4-(Dimethylcarbamoyl)-3-fluorophenoxy)-2-methyl-N-(5-methylpyridin-2-yl)benzo[b]thiophene-6-carboxamide], the activation at 10 µM is 4.2%.

Turning to `Cc1cc2c(Oc3ccc(C(=O)N(C)C)c(F)c3)cc(C(=O)Nc3ccn(C)n3)cc2s1` [Example 362, 4-(4-(Dimethylcarbamoyl)-3-fluorophenoxy)-2-methyl-N-(1-methyl-1H-pyrazol-3-yl)benzo[b]thiophene-6-carboxamide], the activation at 10 µM came to 25.9%.

As to `Cc1ccc(NC(=O)c2cc(Oc3ccc(S(C)(=O)=O)cc3)c3sccc3c2)nc1` [Example 363, 7-(4-Methanesulfonyl-phenoxy)-benzo[b]thiophene-5-carboxylic acid(5-methyl-pyridin-2-yl)-amide], the activation at 10 µM stood at 52.3%, the EC50 was determined as 7.65 µM and the Emax was 99%.

On to `Cn1ccc(NC(=O)c2cc(Oc3ccc(S(C)(=O)=O)cc3)c3sccc3c2)n1` [Example 364, 7-(4-(Methylsulfonyl)phenoxy)-N-(1-methyl-1H-pyrazol-3-yl)benzo-[b]-thiophene-5-carboxamide], for which the activation at 10 µM is 45.8% and the EC50 was > 10 µM.

Turning to `Cc1ccc(NC(=O)c2cc(Oc3ccc(C(=O)N(C)C)c(F)c3)c3sccc3c2)nc1` [Example 365, 7-(4-(Dimethylcarbamoyl)-3-fluorophenoxy)-N-(5-methylpyridin-2-yl)benzo[b]thiophene-5-carboxamide], the activation at 10 µM worked out at 4%.

As for `CN(C)C(=O)c1ccc(Oc2cc(C(=O)Nc3ccn(C)n3)cc3ccsc23)cc1F` [Example 366, 7-(4-(Dimethylcarbamoyl)-3-fluorophenoxy)-N-(1-methyl-1H-pyrazol-3-yl)benzo[b]thiophene-5-carboxamide], the activation at 10 µM amounted to 6.4%.

For `Cc1ccc(NC(=O)c2cc(Oc3ccc(S(C)(=O)=O)cc3)c3ocnc3c2)nc1` [Example 367, N-(5-methylpyridin-2-yl)-7-[4-(methylsulfonyl)phenoxy]-1,3-benzoxazole-5-carboxamide], the activation at 10 µM is 47%, the EC50 came to 5.8 µM and the Emax was determined as 59%.
